Source: patent US8952024B2, “Herbicidal pyrimidone derivatives” (E I du Pont de Nemours and Company, priority 2009, dated 2015)

Legend:
Test in all cases: Test B pre-/postemergence plant response
Format in all cases: in vivo
corn (Zea mays) = test system: corn (Zea mays)
How it was run: (§1)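 Greenhouse herbicide screen. Pre- and postemergence (1- to 4-leaf) spray of compound in solvent/surfactant mixture; loam–sand soil for pre, peat/vermiculite medium for post. Visual control rating 0–100 at 13 to 15 days after treatment.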

soybean (Glycine max) = test system: soybean (Glycine max)
How it was run: as §1

[1] = test system: green foxtail (Setaria viridis)
How it was run: as §1

[2] = test system: johnsongrass (Sorghum halepense)
How it was run: as §1

[3] = test system: morningglory (Ipomoea coccinea)
How it was run: as §1

[4] = test system: Italian ryegrass (Lolium multiflorum)
How it was run: as §1

[5] = test system: large crabgrass (Digitaria sanguinalis)
How it was run: as §1

[6] = test system: giant foxtail (Setaria faberii)
How it was run: as §1

[7] = test system: ragweed (common ragweed, Ambrosia elatior)
How it was run: as §1

[8] = test system: cocklebur (Xanthium strumarium)
How it was run: as §1

[9] = test system: velvetleaf (Abutilon theophrasti)
How it was run: as §1

kochia (Kochia scoparia) = test system: kochia (Kochia scoparia)
How it was run: as §1

[10] = test system: goosegrass (Eleusine indica)
How it was run: as §1

[11] = test system: blackgrass (Alopecurus myosuroides)
How it was run: as §1

[12] = 31 g ai/ha, postemergence, scale 0 to 100, 0 is no effect, 100 is complete control
[13] = 62 g ai/ha, postemergence, 0 is no effect, 100 is complete control, 13 to 15 days
[14] = 250 g ai/ha, Preemergence, 0 to 100 scale
[15] = Postemergence, 125 g ai/ha, visual rating after 13 to 15 days, scale 0 (no effect) to 100 (complete control)
[16] = Postemergence, 250 g ai/ha, scale 0 to 100 (0 no effect, 100 complete control)
[17] = Preemergence, 31 g ai/ha, scale 0 to 100 (0 no effect, 100 complete control)
[18] = Preemergence, 62 g ai/ha, scale 0 to 100 (0 no effect, 100 complete control)
[19] = Preemergence, 125 g ai/ha, scale 0 to 100, 0 no effect, 100 complete control

CCCc1ncc(C(=O)C2=C(O)CCCC2=O)c(=O)n1-c1ccccc1C [Compound 73]
65: Johnsongrass plant response rating (0 to 100 scale) [2, 13] | Plant response rating, Cocklebur [8, 14] | Plant response rating, Cocklebur [8, 15] | Plant response rating, Goosegrass [10, 12]
45: Plant response rating, Morningglory [3, 19] | Ryegrass, Italian plant response rating (0 to 100 scale) [4, 13] | Plant response rating, Ragweed [7, 17] | Cocklebur plant response rating (0 to 100 scale) [8, 13]
30: Plant response rating, Foxtail, Green [1, 18] | Plant response rating, Foxtail, Green [1, 19] | Plant response rating, Blackgrass [11, 16]
98: Plant response rating, Johnsongrass [2, 14] | Plant response rating, Johnsongrass [2, 19] | Plant response rating, Crabgrass, Large [5, 18] | Plant response rating, Goosegrass [10, 18]
95: Plant response rating, Soybean (soybean (Glycine max); [16]) | Plant response rating, Foxtail, Green [1, 16] | Plant response rating, Morningglory [3, 16] | Plant response rating, Crabgrass, Large [5, 16] | Plant response rating, Velvetleaf [9, 12]
85: Plant response rating, Corn (corn (Zea mays); [16]) | Soybean plant response rating (0 to 100 scale) (soybean (Glycine max); [13]) | Crabgrass, Large plant response rating (0 to 100 scale) [5, 13] | Plant response rating, Crabgrass, Large [5, 17] | Plant response rating, Ragweed [7, 15] | Plant response rating, Ragweed [7, 16] | Plant response rating, Goosegrass [10, 17]
70: Plant response rating, Foxtail, Green [1, 12] | Plant response rating, Johnsongrass [2, 15] | Plant response rating, Ryegrass, Italian [4, 16] | Plant response rating, Foxtail, Giant [6, 12] | Plant response rating, Foxtail, Giant [6, 18]
90: Plant response rating, Soybean (soybean (Glycine max); [15]) | Foxtail, Green plant response rating (0 to 100 scale) [1, 13] | Plant response rating, Foxtail, Green [1, 15] | Plant response rating, Crabgrass, Large [5, 15] | Plant response rating, Foxtail, Giant [6, 16] | Plant response rating, Kochia (kochia (Kochia scoparia); [14]) | Plant response rating, Kochia (kochia (Kochia scoparia); [15]) | Plant response rating, Kochia (kochia (Kochia scoparia); [16])
10: Plant response rating, Corn (corn (Zea mays); [14]) | Plant response rating, Johnsongrass [2, 12] | Blackgrass plant response rating (0 to 100 scale) [11, 13] | Plant response rating, Blackgrass [11, 14] | Plant response rating, Blackgrass [11, 15]
20: Plant response rating, Corn (corn (Zea mays); [12])
35: Plant response rating, Ryegrass, Italian [4, 12]
0: Plant response rating, Corn (corn (Zea mays); [17]) | Plant response rating, Corn (corn (Zea mays); [18]) | Plant response rating, Corn (corn (Zea mays); [19]) | Plant response rating, Foxtail, Green [1, 17] | Plant response rating, Johnsongrass [2, 17] | Plant response rating, Johnsongrass [2, 18] | Plant response rating, Morningglory [3, 12] | Plant response rating, Morningglory [3, 17] | Plant response rating, Morningglory [3, 18] | Plant response rating, Ryegrass, Italian [4, 17] | Plant response rating, Ryegrass, Italian [4, 18] | Plant response rating, Ryegrass, Italian [4, 19] | Plant response rating, Foxtail, Giant [6, 17] | Plant response rating, Cocklebur [8, 12] | Plant response rating, Cocklebur [8, 17] | Plant response rating, Cocklebur [8, 18] | Plant response rating, Kochia (kochia (Kochia scoparia); [17]) | Plant response rating, Blackgrass [11, 12] | Plant response rating, Blackgrass [11, 17] | Plant response rating, Blackgrass [11, 18] | Plant response rating, Blackgrass [11, 19]
100: Plant response rating, Crabgrass, Large [5, 14] | Plant response rating, Crabgrass, Large [5, 19] | Velvetleaf plant response rating (0 to 100 scale) [9, 13] | Plant response rating, Velvetleaf [9, 15] | Plant response rating, Velvetleaf [9, 16] | Plant response rating, Velvetleaf [9, 17] | Plant response rating, Velvetleaf [9, 18] | Plant response rating, Velvetleaf [9, 19] | Plant response rating, Goosegrass [10, 14] | Plant response rating, Goosegrass [10, 19]
50: Morningglory plant response rating (0 to 100 scale) [3, 13]
60: Plant response rating, Ryegrass, Italian [4, 15] | Plant response rating, Ragweed [7, 18] | Plant response rating, Cocklebur [8, 19]
80: Corn plant response rating (0 to 100 scale) (corn (Zea mays); [13]) | Plant response rating, Corn (corn (Zea mays); [15]) | Plant response rating, Soybean (soybean (Glycine max); [12]) | Plant response rating, Foxtail, Green [1, 14] | Plant response rating, Crabgrass, Large [5, 12] | Plant response rating, Foxtail, Giant [6, 14] | Plant response rating, Foxtail, Giant [6, 15] | Ragweed plant response rating (0 to 100 scale) [7, 13] | Plant response rating, Cocklebur [8, 16] | Kochia plant response rating (0 to 100 scale) (kochia (Kochia scoparia); [13]) | Plant response rating, Kochia (kochia (Kochia scoparia); [19]) | Plant response rating, Goosegrass [10, 16]
75: Plant response rating, Johnsongrass [2, 16] | Plant response rating, Morningglory [3, 15] | Foxtail, Giant plant response rating (0 to 100 scale) [6, 13] | Plant response rating, Foxtail, Giant [6, 19] | Plant response rating, Ragweed [7, 12] | Plant response rating, Ragweed [7, 19] | Plant response rating, Kochia (kochia (Kochia scoparia); [12]) | Goosegrass plant response rating (0 to 100 scale) [10, 13] | Plant response rating, Goosegrass [10, 15]
